Results: patent US10308649B2, “Compounds and methods to suppress autoimmune response” (Oregon State University, priority 2014, dated 2019)

Biological target: T1, AhR (Mus musculus, UniProt P30561)
T1 sequence (P30561 10-848): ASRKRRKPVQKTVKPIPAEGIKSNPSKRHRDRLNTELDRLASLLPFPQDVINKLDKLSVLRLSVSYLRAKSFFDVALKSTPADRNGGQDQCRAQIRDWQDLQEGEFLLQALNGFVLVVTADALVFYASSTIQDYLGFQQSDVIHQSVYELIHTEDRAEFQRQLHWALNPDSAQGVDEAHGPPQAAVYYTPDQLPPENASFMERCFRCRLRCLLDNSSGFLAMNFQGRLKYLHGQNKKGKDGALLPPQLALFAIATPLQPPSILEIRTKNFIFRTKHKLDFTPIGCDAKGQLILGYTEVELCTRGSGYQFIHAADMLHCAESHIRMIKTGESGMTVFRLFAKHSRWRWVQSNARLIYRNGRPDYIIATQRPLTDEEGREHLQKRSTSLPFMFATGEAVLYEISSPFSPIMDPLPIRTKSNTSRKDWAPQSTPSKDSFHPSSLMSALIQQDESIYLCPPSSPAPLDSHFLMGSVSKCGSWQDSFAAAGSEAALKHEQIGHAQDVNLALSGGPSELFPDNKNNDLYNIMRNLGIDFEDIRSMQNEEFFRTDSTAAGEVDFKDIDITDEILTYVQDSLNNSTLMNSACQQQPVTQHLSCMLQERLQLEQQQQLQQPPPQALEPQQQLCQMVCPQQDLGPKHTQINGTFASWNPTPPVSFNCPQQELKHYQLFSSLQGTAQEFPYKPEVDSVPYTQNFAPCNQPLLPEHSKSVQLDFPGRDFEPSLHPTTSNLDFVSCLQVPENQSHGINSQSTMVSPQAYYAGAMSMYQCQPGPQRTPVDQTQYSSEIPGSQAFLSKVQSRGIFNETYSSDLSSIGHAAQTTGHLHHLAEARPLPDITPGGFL
Experiment: Competitive inhibition of [3H] 3-MC binding to AhR
Text: 3-MC binding to AhR. […] 3-methylcholanthrene (3-MC) to AhR.

Clc1cc2c(cc1Cl)Oc1cc(Cl)c(Cl)cc1O2 [TCDD, 2,3,7,8-tetrachlorodibenzo-p-dioxin]
IC50: 4.7 nM
